Results: ChEMBL document CHEMBL4819058, “An amide mimic of desTHPdactylolide: Total synthesis and antiproliferative evaluation” (Bioorg Med Chem Lett, 2021)

Columns and labels:
[1] = tested on: DU-145; assay: Antiproliferative activity against Docetaxel-resistant human DU-145 cells assessed as reduction in cell viability incubated for 3 days by WST-1 assay; assay type: functional, cell-based; conditions: DU-145, 72 h
[2] = tested on: PC-3; assay: Antiproliferative activity against Docetaxel-resistant human PC-3 cells assessed as reduction in cell viability incubated for 3 days by WST-1 assay; assay type: functional, cell-based; conditions: PC-3, 72 h
[3] = tested on: PC-3; assay: Antiproliferative activity against androgen-insensitive human PC-3 cells assessed as reduction in cell viability incubated for 3 days by WST-1 assay; assay type: functional, cell-based; conditions: PC-3, 72 h
[4] = tested on: LNCaP; assay: Antiproliferative activity against androgen-insensitive human LNCaP cells assessed as reduction in cell viability incubated for 3 days by WST-1 assay; assay type: functional, cell-based; conditions: 72 h
[5] = tested on: DU-145; assay: Antiproliferative activity against androgen-insensitive human DU-145 cells assessed as reduction in cell viability incubated for 3 days by WST-1 assay; assay type: functional, cell-based; conditions: DU-145, 72 h
[6] = Resistance index, ratio of IC50 for antiproliferative activity against human DU145/DTX cells to IC50 for antiproliferative activity against human DU145 cells; assay type: functional
[7] = Resistance index, ratio of IC50 for antiproliferative activity against human PC-3/DTX cells to IC50 for antiproliferative activity against human PC-3 cells; assay type: functional

| IC50 [1] [µM] | IC50 [2] [µM] | IC50 [3] [µM] | IC50 [4] [µM] | IC50 [5] [µM] | Compound | Ratio IC50 [6] | Ratio IC50 [7] |
| --- | --- | --- | --- | --- | --- | --- | --- |
| > 12.5 | > 12.5 | > 12.5 | > 12.5 | 11.1 | C/C1=C/C=C/C(=O)N[C@@H](CO)C/C(C)=C/COCC/C=C/C(=O)C1 |  |  |
| 10.2 | 10.2 | 9.76 | 10.9 | 8.48 | C/C1=C/C=C/C(=O)N[C@@H](C=O)C/C(C)=C/COCC/C=C/C(=O)C1 | 1.2 | 1.05 |
| 7.36 | 4.4 | 7.7 | 6.26 | 4.87 | COc1ccc(COC[C@H]2C/C(C)=C/COCC/C=C/C(=O)C/C(C)=C\C=C\C(=O)N2)cc1 | 1.51 | 0.57 |
|  | 2.34 |  |  |  | CC(=O)O[C@@]12CO[C@@H]1C[C@H](O)[C@@]1(C)C(=O)[C@H](O)C3=C(C)[C@@H](OC(=O)[C@H](O)[C@@H](NC(=O)OC(C)(C)C)c4ccccc4)C[C@@](O)([C@@H](OC(=O)c4ccccc4)[C@H]21)C3(C)C [DOCETAXEL ANHYDROUS] |  |  |
